In the supplement of paper PMC10307832:

Experiments:
Assay in all cases: relative viability (nuclei count vs DMSO), 5 days (fraction); higher = more cells survive
[1] = compound: C1CNCCC1C2=CC(=NN2)C3=CC=NC=C3 + COc1cc2c(Oc3ccc(NC(=O)C4(C(=O)Nc5ccc(F)cc5)CC4)cc3F)ccnc2cc1OCCCN1CCOCC1 [Foretinib] (partner 0.25 µM)
In short: (§1)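 Nuclei were stained with Hoechst during a one-step fixation (final 0.05% Triton X-100, 1% formaldehyde, 1 ug/ml Hoechst) carried out 5 days after dosing, then counted on 4× images. The cells, lung cancer lines in 1536-well plates, had been dosed by pin tool the day after seeding with one drug alone or a fixed anchor-drug dose plus five library-drug doses (not always all listed) in √10 steps. Relative viability is the nuclei count in treated wells divided by that in vehicle wells, and each value is the median of duplicate plates.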

Tanzisertib + Tozasertib = compound: O[C@H]1CC[C@H](Nc2ncc3nc(Nc4c(F)cc(F)cc4F)n([C@H]4CCOC4)c3n2)CC1 [Tanzisertib] + Cc1cc(Nc2cc(N3CCN(C)CC3)nc(Sc3ccc(NC(=O)C4CC4)cc3)n2)n[nH]1 [Tozasertib] (partner 0.1 µM)
In short: as §1

Tanzisertib + Decitabine = compound: O[C@H]1CC[C@H](Nc2ncc3nc(Nc4c(F)cc(F)cc4F)n([C@H]4CCOC4)c3n2)CC1 [Tanzisertib] + Nc1ncn([C@H]2C[C@H](O)[C@@H](CO)O2)c(=O)n1 [Decitabine] (partner 2 µM)
In short: as §1

[2] = compound: C[C@@H](N)c1ccc(C(=O)Nc2ccnc3[nH]ccc23)cc1 + Nc1nc2[nH]cc(CCc3ccc(C(=O)N[C@@H](CCC(=O)O)C(=O)O)cc3)c2c(=O)[nH]1 [Pemetrexed] (partner 0.2 µM)
In short: as §1

Row | Cell Line | relative viability ([1]; first compound 0.08 µM) | relative viability ([1]; first compound 0.8 µM) | relative viability ([1]; first compound 2.53 µM) | relative viability ([1]; first compound 8 µM) | relative viability (Tanzisertib + Tozasertib; first compound 0.08 µM) | relative viability (Tanzisertib + Tozasertib; first compound 0.253 µM) | relative viability (Tanzisertib + Tozasertib; first compound 0.8 µM) | relative viability (Tanzisertib + Tozasertib; first compound 2.53 µM) | relative viability (Tanzisertib + Tozasertib; first compound 8 µM) | relative viability (Tanzisertib + Decitabine; first compound 0.08 µM) | relative viability (Tanzisertib + Decitabine; first compound 0.253 µM) | relative viability (Tanzisertib + Decitabine; first compound 0.8 µM) | relative viability (Tanzisertib + Decitabine; first compound 2.53 µM) | relative viability (Tanzisertib + Decitabine; first compound 8 µM) | relative viability ([2]; first compound 0.04 µM) | relative viability ([2]; first compound 0.1265 µM) | relative viability ([2]; first compound 0.4 µM) | relative viability ([2]; first compound 1.265 µM) | relative viability ([2]; first compound 4 µM)
1 | NCI-H727 | 0.805 | 0.758 | 1.13 | 0.904 | 0.702 | 0.714 | 0.699 | 0.663 | 0.66 | 0.941 | 0.875 | 0.702 | 0.89 | 0.755 | – | – | – | – | –
2 | HARA | 0.842 | 1.21 | 0.993 | 0.707 | 0.136 | 0.112 | 0.109 | 0.0917 | 0.103 | 0.602 | 0.579 | 0.504 | 0.566 | 0.539 | 0.191 | 0.209 | 0.257 | 0.249 | 0.236
3 | NCI-H2228 | 0.871 | 0.929 | 0.939 | 0.911 | 0.333 | 0.385 | 0.241 | 0.254 | 0.238 | – | – | – | – | – | 0.342 | 0.385 | 0.302 | 0.347 | 0.327
4 | LCLC-97TM1 | 0.946 | 0.888 | 0.938 | 0.904 | 0.252 | 0.199 | 0.207 | 0.207 | 0.179 | 0.25 | 0.264 | 0.201 | 0.245 | 0.228 | 0.207 | 0.188 | 0.172 | 0.0771 | 0.21
5 | LC-2-ad | – | 0.956 | 0.997 | 0.948 | 0.479 | 0.412 | 0.495 | 0.415 | 0.34 | 0.774 | 0.788 | 0.777 | 0.806 | 0.722 | 0.263 | 0.267 | 0.248 | 0.279 | 0.259
6 | SK-LU-1 | 0.813 | 0.946 | 0.951 | 0.885 | 0.33 | 0.316 | 0.263 | 0.309 | 0.319 | 0.707 | 0.796 | 0.623 | 0.616 | 0.647 | 0.952 | 0.892 | 0.933 | 0.809 | 0.558
7 | EKVX | 0.902 | 0.437 | 1.5 | 0.716 | 0.403 | 0.395 | 0.407 | 0.36 | 0.377 | 0.371 | 0.356 | 0.41 | 0.323 | 0.324 | 0.365 | 0.383 | 0.566 | 0.354 | 0.379
8 | HCC-827 | 1.04 | 1.07 | 1.01 | 1.12 | 0.432 | 0.449 | 0.354 | 0.353 | 0.3 | 0.338 | 0.372 | 0.257 | 0.367 | 0.207 | – | 0.272 | 0.268 | 0.292 | 0.264
9 | NCI-H650 | 1 | 0.924 | 1.06 | 0.998 | 0.761 | 0.796 | 0.776 | 0.768 | 0.65 | 0.33 | 0.321 | 0.305 | 0.337 | 0.284 | – | 0.932 | 0.809 | – | 0.614
10 | CAL-12T | 1.09 | 1.11 | 1.22 | 1.06 | 0.361 | 0.409 | 0.307 | 0.264 | 0.266 | – | – | – | – | – | 1.23 | 1.39 | 1.43 | 1.49 | 1.27
11 | NCI-H2342 | 0.899 | 1.04 | 1.21 | 1.29 | 0.584 | 0.481 | 0.63 | 0.523 | 0.581 | 0.78 | 0.778 | 0.694 | 0.781 | 0.815 | 0.781 | 0.803 | 0.792 | 0.847 | 0.794
12 | SW 900 | 0.899 | 1.01 | 0.856 | 1.01 | 0.686 | 0.528 | 0.603 | 0.501 | 0.544 | – | 0.485 | 0.412 | 0.328 | 0.438 | 0.465 | 0.478 | 0.475 | 0.5 | 0.474
13 | IA-LM | 1.09 | 1.37 | 1.19 | 1.26 | – | – | – | – | – | – | – | – | – | – | – | – | – | – | –
14 | EPLC-272H | 0.647 | 0.674 | 0.678 | 0.706 | 0.308 | 0.183 | 0.326 | 0.303 | 0.171 | 0.43 | 0.366 | 0.43 | 0.381 | 0.353 | 0.251 | 0.339 | 0.312 | 0.238 | 0.225
15 | A-427 | 1.11 | 1.21 | 1.13 | 1.04 | 0.244 | 0.196 | 0.214 | 0.198 | 0.2 | 0.58 | 0.567 | 0.569 | 0.537 | 0.631 | 0.827 | 0.985 | 0.815 | 0.671 | 0.726
16 | NCI-H647 | 0.922 | 1.04 | 1.27 | 1.32 | 0.283 | 0.269 | 0.281 | 0.388 | 0.226 | 0.437 | 0.329 | 0.334 | 0.457 | 0.578 | 0.199 | 0.2 | 0.24 | 0.166 | 0.145
17 | NCI-H1975 | 1.07 | 1.03 | 0.962 | 0.932 | 0.845 | 0.762 | 0.838 | 0.668 | 0.458 | 0.406 | 0.41 | 0.295 | 0.373 | 0.39 | 0.313 | 0.31 | 0.265 | 0.228 | 0.211
18 | NCI-H358 | 0.551 | 0.672 | 0.727 | 0.69 | 0.119 | 0.0917 | 0.106 | 0.107 | 0.117 | 0.232 | 0.221 | 0.189 | 0.248 | 0.181 | 0.183 | 0.189 | 0.18 | 0.165 | 0.16
